Source: publication PMC7607171, “Optimized low‐dose combinatorial drug treatment boosts selectivity and efficacy of colorectal carcinoma treatment” (Molecular Oncology, 2020)
“And” between values parts separate entries of the source, which are not always exact repeats. Equal entries are not always repeated.

How the values were obtained:
[1] = Pharmacokinetics, dried blood spot LC-MS/MS, mice with DLD1 tumors; format: in vivo; conditions: for Tmax / AUC(0-t) / Cmax: Swiss Nu/nu, mouse, whole blood (dried blood spot), po, regorafenib 15, erlotinib 12.5, selumetinib 5, vemurafenib 75 mg/kg; for AUC(0-t) / Cmax: whole blood, mean ± SD; for AUC(0-t): oral, read-out: AUC0-24h; for increase of AUC as part of the ODC vs single-drug treatment: mice with DLD1 tumors, AUC0-24h
Description: (§1) The pharmacokinetic (PK) study was performed using the dried blood spot method. Mice were treated with CTRL, ODCs, and corresponding monotherapies as described above. To determine the disposition in blood in the first 24h, blood samples (5 µL/mouse) were collected from the tail vein (n = 4 mice) at 2h, 4h, 8h, and 24h time points and transferred onto paper (a filter paper 903 protein saver card from Whatman (MA, USA)). A disk with the entire spot was punched from the paper card and transferred to the HPLC vial tube. Hundred µL of MeOH containing a mix of internal standards was added, and the tube was vortex‐mixed for about 1 min before injecting 10 µL into the LC‐MS/MS system. The LC‐MS/MS system consisted of an API 4,000 triple quadrupole mass spectrometer (AB sciex, Concord, ON, Canada) controlled by analyst 1.6.1 software. The mass spectrometer was operated in the multiple reaction monitoring (MRM) mode with positive electrospray ionization. The instrument was coupled with an Agilent series 1100 (Waldbronn, Germany) LC system. Chromatography was performed on a Phenomenex Kinetex C18 analytical column (50 mm x 2.1 mm, 2.6 um; Torrance, CA, USA). The flow rate was 0.5 mL/min using gradient elution conditions. The method was fully validated before application to this pharmacokinetic study.

[2] = Serum and intratumor drug concentration at experimental endpoint, SW620 model; format: in vivo, mice; conditions: for concentration at 1 h / Kp at 1 h: Swiss Nu/nu, mouse, oral; for concentration at 1 h: 1h post-treatment at endpoint (day 19); for Kp at 1 h: tumor vs serum, read-out: ratio tumor vs serum; for Kp at 1 h / ratio ODC vs single drug: SW620 model
Description: (§2) At the experimental endpoint, plasma and tumors were collected 1h post‐treatment and part of the tumor tissue was used to determine the intratumor drug concentrations. Plasma and tumor samples were analyzed using the same LC‐MS/MS method used for drug determination in DBS. Before analysis, tumor tissues were homogenized in a 1 mL mixture of water/acetonitrile (30/70). Hundred uL of homogenates were transferred into new tubes and 50 µL of acetonitrile, as well as 50 µL of a mix of internal standards in MeOH were added. Tubes were vortexed and centrifuged for 10 min at 9,000 rpm. The supernatant (100 µL) was evaporated under nitrogen and reconstituted in 100 µL of acetonitrile with 0.1% formic acid/water with 0.1% formic acid (30/70). 10 µL was then injected into the LC‐MS/MS system. Plasma samples were spotted onto the same paper used for whole blood analysis and were extracted and analyzed using the same methods as used for DBS.

[3] = Pharmacokinetics, dried blood spot LC-MS/MS, mice with SW620 tumors; format: in vivo; conditions: for Tmax / AUC(0-t) / Cmax: Swiss Nu/nu, mouse, whole blood (dried blood spot), po, regorafenib 30, vemurafenib 75, GDC-0994 10 mg/kg; for AUC(0-t) / Cmax: whole blood, mean ± SD; for AUC(0-t): oral, read-out: AUC0-24h; for increase of AUC as part of the ODC vs single-drug treatment: mice bearing SW620 tumors, AUC0-24h
Description: as §1

[4] = Clinical plasma pharmacokinetics in patients, plasma concentration limit calculation; format: in vivo; conditions: average plasma concentration calculated from AUC0-24h in patients
Description: To select for clinically relevant doses, the clinically attainable drug concentration measured in the blood plasma of patients after treatment is used to calculate the concentration limit for in vitro experiments. […] The average drug concentration is calculated from the AUC0–24h and is implemented as the plasma concentration limit (PCL) which drug dose selection must remain below for in vitro experiments. If a drug is FDA approved, the AUC0–24h selected is the one corresponding to the recommended dose in clinical practice. If a drug is in clinical trials, the AUC0–24h selected is the one corresponding to the maximum tolerated dose in early stage clinical trials. Note, experiments were conducted with the most current PCL calculated from the AUC0–24h information available at the start of experiments (December 2017), see Table S4.

[5] = Serum and intratumor drug concentration at experimental endpoint, DLD1 model; format: in vivo, mice; conditions: for concentration at 1 h / Kp at 1 h: Swiss Nu/nu, mouse, oral; for concentration at 1 h: 1h post-treatment at endpoint (day 15); for Kp at 1 h: tumor vs serum, read-out: ratio tumor vs serum; for Kp at 1 h / ratio ODC vs single drug: DLD1 model
Description: as §2

[6] = given as part of DLD1-specific ODC
[7] = serum, as part of ODC, regorafenib 30, selumetinib 0.2, vemurafenib 75, GDC-0994 10 mg/kg, read-out: concentration serum
[8] = serum, single drug, regorafenib 30, selumetinib 0.2, vemurafenib 75, GDC-0994 10 mg/kg, read-out: concentration serum
[9] = tumor (SW620), as part of ODC, SW620 tumor, doses as E164, read-out: concentration tumor
[10] = tumor (SW620), single drug, SW620 tumor, doses as E164, read-out: concentration tumor
[11] = given as part of SW620-specific ODC
[12] = serum, as part of ODC, regorafenib 15, erlotinib 12.5, selumetinib 5, vemurafenib 75 mg/kg, read-out: concentration serum
[13] = serum, single drug, regorafenib 15, erlotinib 12.5, selumetinib 5, vemurafenib 75 mg/kg, read-out: concentration serum
[14] = tumor (DLD1), as part of ODC, DLD1 tumor, doses as E156, read-out: concentration tumor
[15] = tumor (DLD1), single drug, DLD1 tumor, doses as E156, read-out: concentration tumor

Row | SMILES | Tmax [1, 6] [h] | AUC(0-t) [1, 6] [ng·h/mL] | Cmax [1, 6] [ng/mL] | Tmax ([1]; mono) [h] | AUC(0-t) ([1]; mono) [ng·h/mL] | Cmax ([1]; mono) [ng/mL] | increase of AUC as part of the ODC vs single-drug treatment [1] [x] | concentration at 1 h [2, 7] [ng/mL] | concentration at 1 h [2, 8] [ng/mL] | concentration at 1 h [2, 9] [ng/g] | Kp at 1 h ([2]; as part of ODC) | Kp at 1 h ([2]; single drug) | Tmax [3, 11] [h] | AUC(0-t) [3, 11] [ng·h/mL] | Cmax [3, 11] [ng/mL] | Tmax ([3]; mono) [h] | AUC(0-t) ([3]; mono) [ng·h/mL] | Cmax ([3]; mono) [ng/mL] | increase of AUC as part of the ODC vs single-drug treatment [3] [x] | PCL (plasma concentration limit) [4] | further results
1 | CNC(=O)c1cc(Oc2ccc(NC(=O)Nc3ccc(Cl)c(C(F)(F)F)c3)c(F)c2)ccn1 [regorafenib] | 4 | 49400 ± 2980 | 3380 ± 490 | 8 | 17500 ± 5790 | 1190 ± 690 | 2.8 | 6600 ± 2800 | 2220 ± 70 | 1820 ± 770 | 0.28 | 0.6 | 4 | 22200 ± 1830 | 1610 ± 220 | 4 | 9860 ± 1930 | 710 ± 260 | 2.2 | 4.34 µM and 4.3 µM | concentration at 1 h [2, 10]: 1330 ± 230 ng/g; ratio ODC vs single drug ([2]; serum): 2.97; ratio ODC vs single drug ([2]; tumor): 1.37; concentration at 1 h [5, 12]: 1830 ± 540 ng/mL; concentration at 1 h [5, 13]: 880 ± 250 ng/mL; concentration at 1 h [5, 14]: 8670 ± 5530 ng/g; concentration at 1 h [5, 15]: 1540 ± 680 ng/g; Kp at 1 h ([5]; as part of ODC): 4.74; Kp at 1 h ([5]; single drug): 1.76; ratio ODC vs single drug ([5]; serum): 2.09; ratio ODC vs single drug ([5]; tumor): 5.62
2 | Cn1cnc2c(F)c(Nc3ccc(Br)cc3Cl)c(C(=O)NOCCO)cc21 [selumetinib] | 2 | 24800 ± 8250 | 3830 ± 1640 | 2 | 15200 ± 7590 | 1220 ± 330 | 1.6 | 280 ± 200 | 410 ± 350 | 220 ± 100 | 0.77 | 1.39 | 2 | 890 ± 130 | 230 ± 80 | 2 | 770 ± 140 | 240 ± 80 | 1.2 | 0.60 µM and 0.6 µM | concentration at 1 h [2, 10]: 560 ± 90 ng/g; concentration at 1 h [5, 12]: 3490 ± 900 ng/mL; concentration at 1 h [5, 13]: 2500 ± 1080 ng/mL; concentration at 1 h [5, 14]: 4530 ± 1950 ng/g; concentration at 1 h [5, 15]: 1980 ± 660 ng/g; Kp at 1 h ([5]; as part of ODC): 1.3; Kp at 1 h ([5]; single drug): 0.79
3 | CCCS(=O)(=O)Nc1ccc(F)c(C(=O)c2c[nH]c3ncc(-c4ccc(Cl)cc4)cc23)c1F [vemurafenib] | 4 | 14400 ± 2740 | 1050 ± 360 | 2 | 2180 ± 220 | 270 ± 80 | 6.6 | 1770 ± 770 | 1960 ± 1050 | 890 ± 530 | 0.5 | 0.48 | 4 | 48200 ± 5720 | 4710 ± 650 | 2 | 19400 ± 3250 | 2560 ± 640 | 2.5 | 11.1 µM | ratio ODC vs single drug ([2]; serum): 0.90; ratio ODC vs single drug ([2]; tumor): 0.95; concentration at 1 h [5, 12]: 910 ± 380 ng/mL; concentration at 1 h [5, 13]: 620 ng/mL; concentration at 1 h [5, 14]: 1650 ± 1000 ng/g; concentration at 1 h [5, 15]: 790 ng/g; Kp at 1 h ([5]; as part of ODC): 1.81; Kp at 1 h ([5]; single drug): 1.28; ratio ODC vs single drug ([5]; serum): 1.48; ratio ODC vs single drug ([5]; tumor): 2.09
